From US12448388B2, “PRMT5 inhibitors and uses thereof” (Gilead Sciences, Inc., priority 2023, dated 2025)
Values after ≈ are worked out from the molar mass of the structure shown. Read-outs that look alike come from different tables or passages of the source.

Columns and labels:
[1] = test system: HCT116 MTAP-deleted cell lines; experiment: Cell viability assay (CellTiter-Glo, 7 days), HCT116 MTAP-deleted; type: cell-based; settings: for Selectivity: HCT116 WT CC50 versus HCT116 MTAP^del CC50; for plasma-adjusted CC50 (paCC50): paCC50 = CC50-HCT116-MTAP^del * (% free CCM/% free human plasma); for CC50: Homo sapiens, HCT116 MTAP-deleted
Outline: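 Luminescent ATP readout (CellTiter-Glo) after 7 days of continuous compound exposure gives the CC50 value. Cells were plated onto pre-dispensed DMSO dilution series of the PRMT5 inhibitors and kept at 37 °C in 5% CO2.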

[2] = Cell viability assay (CellTiter-Glo, 7 days), HCT116 WT; type: cell-based; settings: human, HCT116 WT cells, 7 days of treatment, CTG
Description: Control compounds were analyzed in parallel each time for quality control. In Brief, on Day -1, a serial dilution of stock compounds in DMSO was performed using BioMek liquid handlers and dispensed using Echo acoustic dispenser into 384 well plates. Both tool compounds and sample compounds were spotted in the same plate for a dose response of PRMT5 inhibitors. Compound plates were stored as frozen until the cells were ready for seeding. […] After equilibrating the plate in room temperature, the cells were incubated for 7 days inside the sealed incubator set at 37° C. with 90% humidity and 5% CO2. On Day 7, the viability of cells was measured using a CTG assay kit (CellTitre-Glo;Promega cat no. G7573). Shortly, 40 μl per well of luminescent cell viability assay reagent were dispensed using EL460 liquid dispenser 5 μl cassette. CTG luminescence signal was measured using an EnVision plate reader (PerkinElmer) in accordance with manufacturer's instruction. […] Selectivity with * is artificially high due to limited solubility of the compound hampering accurate measurement of WT CC50.

[3] = MDR1/BCRP assay: permeability in cPgp-KO-MDCK-WT cells; type: in vitro ADME; settings: dog, pH 7.4
Description: The cells were maintained in an incubator at 37° C., 90% humidity, and 5% CO2 until reaching confluence over 5 days in 96-well transwell plates. Experiments were conducted using an HBSS donor buffer (Invitrogen) containing 10 mM HEPES and 15 mM glucose, adjusted to pH 7.4. The receiver well contained HBSS buffer supplemented with 1% BSA, 10 mM HEPES, and 15 mM glucose, and the pH was adjusted to 7.4. TEER values were measured to assess membrane integrity after an initial equilibration with BSA-free transport buffer for 15 minutes. The experiment was started by adding dosing solutions containing test compounds at 1 μM. Cells were dosed on the apical (A) side or basolateral (B) side at 100 μl and 200 μl, respectively, to determine forward (A to B) and reverse (B to A) permeability. At the 2-hour time point, 50 μl samples were collected from the receiver compartment. Each compound was tested in 2 separate replicate wells for each condition. All samples were immediately collected into plates, and 50 μL of acetonitrile was added. Subsequently, 350 μl of 30:70 methanol: acetonitrile containing internal standard was added to precipitate proteins and stabilize the test compounds. To test for non-specific binding and compound instability, the total amount of the drug was quantified at the end of the experiment and compared to the material present in the original dosing solution as a percentage of the recovery. All samples were analyzed by LC-MS/MS using electrospray ionization.
The apparent permeability, Papp, and % recovery were calculated as follows: […]

[4] = PBS solubility (kinetic solubility from DMSO stocks); type: physicochemical; settings: 22 °C, aqueous buffer, kinetic from dmso stock; 1x PBS pH 7.4, 1.0% DMSO, 24-hour incubation at ambient temperature
Description: Buffer Preparation: 1×PBS, 7.4: Phosphate Buffered Saline solution 10×, PBS (Fisher Bioreagent, part number BP399-500) 50 mL was added to approximately 450 mL HPLC grade H2O. The volume of the solution was then adjusted to 500 mL for a total dilution factor of 1:10 and a final PBS concentration of 1×. The pH of the final solution was measured and found to be 7.4.
The final DMSO Concentration is 1.0% and maximum theoretical compound concentration is 100 μM (assuming stock concentration of 10 mM). The filter plate was sealed. Following 24-hour incubation at ambient temperature (20.8-24.0° C.), the samples were vacuum filtered, and the filtrates were collected in a 96 well polypropylene plate for analysis. The collection plate was sealed for analysis. Filtrates were injected into the nitrogen detector for quantification on Analiza's Automated Discovery Workstation. The results are reported here in both μM and μg/mL.
Calculation of Results: The equimolar nitrogen response of the detector is calibrated using standards which span the dynamic range of the instrument from 0.08 to 4500 μg/ml nitrogen. The filtrates were quantified with respect to this calibration curve. The calculated solubility values are corrected for background nitrogen present in the DMSO, and the media used to prepare the samples. All reported values for compounds containing adjacent nitrogen atoms in a ring structure should be increased by ˜25%. […] The solubility results presented assume that the samples were free of nitrogen containing impurities and are stable under the assay conditions.

[5] = Pharmacokinetics in cassette in male Sprague-Dawley rats for Kp measurement; type: in vivo; settings: 1 mg/kg, intravenous
Description: E.1 Test Animal: Male Sprague-Dawley Rats (225-300 g) with Indwelling Bilateral Jugular Vain Cannula (JVC/JVC) or Single Jugular Vein Cannula (JVC)
E.2 Pharmaceutical Formulation and Administration
Test compound was dissolved in the vehicle of 10% DMSO, 10% ethanol, 40% polyethylene glycol 300, and 40% propylene glycol to get 1 mg/mL test compound solution. The compound was administered by intravenous administration at a dose of 1 mL/kg. Fasting was not required.
• Anticoagulant: K2EDTA • Volume: approximately 225 μL blood at each bleed • Jugula vein via syringe and needle or another method (non-terminal samples) or exsanguination (cardiac puncture) under isoflurane (or CO2 inhalation if isoflurane is unavailable) anesthesia (terminal time points). Blood samples were collected into K2EDTA tubes • Tissue collection and processing: following the terminal blood collection, the brain and CSF were collected from each animal.

[6] = HCT-116, 168 h, 7 days of treatment, CTG, read-out: CC50-HCT116-MTAP^del
[7] = HCT-116, cell viability, class symbols, read-out: CC50
[8] = HCT-116, cell viability assay, class symbols, read-out: CC50
[9] = brain Kp = [brain]/[plasma], rat, read-out: Rat brain Kp
[10] = brain Kpu,u = Kp * (plasma free/rat brain free), read-out: Rat brain Kpu,u

| SMILES | Selectivity [1] | plasma-adjusted CC50 (paCC50) ([1]; HCT-116) [nM] | CC50 [1, 6] [nM] | CC50 [1, 7] [nM] | CC50 at 7 days [2] [nM] | Papp A→B at 2 h, 1 µM [3] [×10⁻⁶ cm/s] | solubility at 24 h [4] [µM] | CC50 [1, 8] [nM] | Kp [5, 9] | Kp [5, 10] |
| --- | --- | --- | --- | --- | --- | --- | --- | --- | --- | --- |
| C[C@@H]1C[C@@H]2Oc3cc(C(F)(F)F)ccc3[C@@H]2N(C(=O)c2cc3c(cn2)nc(N)c2cncn23)C1 [Ff-252, (4-aminoimidazo[1,5-a]pyrido[3,4-e]pyrazin-8-yl)((3R,4aS,9bS)-3-methyl-7-(trifluoromethyl)-3,4,4a,9b-tetrahydrobenzofuro[3,2-b]pyridin-1(2H)-yl)methanone] | 41 | 269 | 13 | < 100 | 534 | 13.6 | < 1 | – | – | – |
| Cc1ncc2c(N)nc3ccc(C(=O)N4CCC[C@@H]5Oc6cc(C(F)(F)F)ccc6[C@@H]54)cc3n12 [Ff-345, (4-amino-1-methylimidazo[1,5-a]quinoxalin-8-yl)((4aS,9bS)-7-(trifluoromethyl)-3,4,4a,9b-tetrahydrobenzofuro[3,2-b]pyridin-1(2H)-yl)methanone] | 113 | – | 32 | < 100 | 3620 | 10.2 | < 1 | – | – | – |
| N#Cc1cc2nc(N)c3cncn3c2cc1C(=O)N1CCC[C@@H]2Oc3cc(C(F)(F)F)ccc3[C@@H]21 [Ff-346, 4-amino-8-((4aS,9bS)-7-(trifluoromethyl)-1,2,3,4,4a,9b-hexahydrobenzofuro[3,2-b]pyridine-1-carbonyl)imidazo[1,5-a]quinoxaline-7-carbonitrile] | 51 | 155 | 6 | < 100 | 305 | 10.8 | 4.2 (≈ 2.01 µg/mL) | – | – | – |
| Cc1ncc2c(N)nc3cc(F)c(C(=O)N4CCC[C@@H]5Oc6nc(C(F)(F)F)ccc6[C@@H]54)cc3n12 [Ff-363, (4-amino-7-fluoro-1-methylimidazo[1,5-a]quinoxalin-8-yl)((4aS,9bS)-7-(trifluoromethyl)-3,4,4a,9b-tetrahydrofuro[2,3-b:4,5-b′]dipyridin-1(2H)-yl)methanone] | 127 | 196 | 16 | < 100 | 2040 | 13.4 | 21.8 (≈ 10.6 µg/mL) | – | – | – |
| Cc1ncn2c1c(N)nc1cc(F)c(C(=O)N3CCC[C@@H]4Oc5cc(C(F)(F)F)ccc5[C@@H]43)cc12 [Ff-379, (4-amino-7-fluoro-3-methylimidazo[1,5-a]quinoxalin-8-yl)((4aS,9bS)-7-(trifluoromethyl)-3,4,4a,9b-tetrahydrobenzofuro[3,2-b]pyridin-1(2H)-yl)methanone] | 56 | – | 13 | – | 730 | 10 | < 1 | < 100 | – | – |
| Nc1nc2cc(Cl)c(C(=O)N3CCC[C@@H]4Oc5cc(C(F)(F)F)ccc5[C@@H]43)cc2n2cncc12 [Ff-587, (4-amino-7-chloroimidazo[1,5-a]quinoxalin-8-yl)((4aS,9bS)-7-(trifluoromethyl)-3,4,4a,9b-tetrahydrobenzofuro[3,2-b]pyridin-1(2H)-yl)methanone] | 55 | 329 | 5 | – | 274 | 7.4 | < 1 | < 100 | 0.52 | 0.06 |
| Cc1ncc2c(N)nc3cnc(C(=O)N4CC[C@H]5C[C@@H]4c4ccc(OC(F)(F)F)cc4O5)cc3n12 [Ff-698, (4-amino-1-methylimidazo[1,5-a]pyrido[3,4-e]pyrazin-8-yl)((2S,6R)-9-(trifluoromethoxy)-3,4-dihydro-2H-2,6-methanobenzo[b][1,5]oxazocin-5(6H)-yl)methanone] | 96 | 295 | 15 | – | 1440 | 11.4 | < 1 | – | – | – |
| Cc1ncc2c(N)nc3cnc(C(=O)N4CC[C@H]5C[C@@H]4c4ccc(C(F)(F)F)c(F)c4O5)cc3n12 [Ff-699, (4-amino-1-methylimidazo[1,5-a]pyrido[3,4-e]pyrazin-8-yl)((2S,6R)-10-fluoro-9-(trifluoromethyl)-3,4-dihydro-2H-2,6-methanobenzo[b][1,5]oxazocin-5(6H)-yl)methanone] | 74 | 237 | 15 | – | 1110 | 10.9 | 2.6 (≈ 1.26 µg/mL) | – | – | – |
| Cc1ncn2c1c(N)nc1ccc(C(=O)N3CCC[C@@H]4Oc5cc(C(F)(F)F)ccc5[C@@H]43)cc12 [Fg-31, (4-amino-3-methylimidazo[1,5-a]quinoxalin-8-yl)((4aS,9bS)-7-(trifluoromethyl)-3,4,4a,9b-tetrahydrobenzofuro[3,2-b]pyridin-1(2H)-yl)methanone] | 113 | 312 | 19 | – | 2140 | 10.3 | 1.6 (≈ 0.748 µg/mL) | < 100 | 0.76 | 0.13 |
